For 35 molecules, IC50 results are on record in patent US20190134005A1 (BioMarin Pharmaceutical Inc., priority 2016, published 2019).

By IC50 is commonly meant the concentration at which inhibition is half-maximal.

In one assay the target is T1, human CGT (Homo sapiens, UniProt Q16880).
T1 sequence (Q16880 21-541): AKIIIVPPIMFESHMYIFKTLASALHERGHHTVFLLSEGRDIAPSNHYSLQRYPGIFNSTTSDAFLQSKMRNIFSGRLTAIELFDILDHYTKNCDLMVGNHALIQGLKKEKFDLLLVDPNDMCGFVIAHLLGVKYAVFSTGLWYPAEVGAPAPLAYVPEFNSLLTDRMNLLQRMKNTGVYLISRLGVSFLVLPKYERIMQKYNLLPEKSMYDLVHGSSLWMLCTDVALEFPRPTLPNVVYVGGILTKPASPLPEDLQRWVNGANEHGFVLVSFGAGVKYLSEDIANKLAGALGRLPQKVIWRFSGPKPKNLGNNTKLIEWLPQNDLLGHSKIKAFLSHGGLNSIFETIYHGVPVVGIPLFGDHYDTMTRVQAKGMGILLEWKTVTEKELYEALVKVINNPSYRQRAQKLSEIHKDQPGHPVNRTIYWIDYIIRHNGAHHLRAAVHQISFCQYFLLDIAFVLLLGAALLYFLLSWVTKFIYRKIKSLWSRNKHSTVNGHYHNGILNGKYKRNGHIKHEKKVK
As to the kind of experiment: Assay 1: CGT Enzymatic Assay (RapidFire/MS/MS, 0.01% Tween 80). In kind it is biochemical. Particulars: Table 1, Compounds of Formula (I) and Formula (II); CGT enzymatic assay, C6-NBD-dihydro-galactosylceramide readout; read-out: IC50.
Consider `Cc1ccc(N2C(=O)N(c3ccc(Cl)cc3)C(O)(c3cccc(C#N)c3)C23COC3)cc1` (centres unmarked) [Compound 283, 3-(7-(4-chlorophenyl)-8-hydroxy-6-oxo-5-(p-tolyl)-2-oxa-5,7-diazaspiro[3.4]octan-8-yl)benzonitrile], for which the IC50 is less than 1 µM. On the same count and under the same terms, with `N#Cc1cccc(C2(O)N(c3ccc(Cl)cc3)C(=O)N(c3ccc(Cl)cc3)C23CNC3)c1` (centres unmarked) [Compound 300, 3-(5,7-bis(4-chlorophenyl)-8-hydroxy-6-oxo-2,5,7-triazaspiro[3.4]octan-8-yl)benzonitrile 2,2,2-trifluoroacetate] the figure was 1 to 10 µM; with `COC[C@]1(C)N(c2ccc(Cl)cc2)C(=O)N(c2ccc(Cl)cc2)C1(O)c1cccc(C#N)c1` (single isomer, unassigned) [Compound 297-2], less than 1 µM; with `CCC[C@]1(C)N(c2ccc(C#N)cc2)C(=O)N(c2ccc(C#N)cc2)C1(O)c1cccc(OC(F)(F)F)c1` (stereo partly drawn) [Example 320-2, 4,4′-((5S)-4-hydroxy-5-methyl-2-oxo-5-propyl-4-(3-(trifluoromethoxy)phenyl)imidazolidine-1,3-diyl)dibenzonitrile], less than 1 µM. On the same count and under the same terms, with `Cc1ccc(N2C(=O)N(c3ccc(C#N)cc3)C(O)(c3cccc(C#N)c3)C23CCC3)cc1` (centres unmarked) [Compound 282, 3-(7-(4-cyanophenyl)-8-hydroxy-6-oxo-5-(p-tolyl)-5,7-diazaspiro[3.4]octan-8-yl)benzonitrile] the figure was less than 1 µM. Consider `O=C1N(c2ccccc2)C2(CCC2)C(O)(c2cccc(OC(F)(F)F)c2)N1c1ccc(Cl)cc1` (centres unmarked) [Example 334, 7-(4-chlorophenyl)-8-hydroxy-5-phenyl-8-(3-(trifluoromethoxy)phenyl)-5,7-diazaspiro[3.4]octan-6-one], for which the IC50 is less than 1 µM.

Take `O=C1N(c2ccc(Cl)cc2)C2(COC2)C(O)(c2sccc2Br)N1c1ccc(Cl)cc1` (centres unmarked) [Example 310, 8-(3-bromothiophen-2-yl)-5,7-bis(4-chlorophenyl)-8-hydroxy-2-oxa-5,7-diazaspiro[3.4]octan-6-one]: the IC50 is less than 1 µM. Same read-out and setting: for `CC(F)(F)c1cccc(C2(O)N(c3ccc(Cl)cc3)C(=O)N(c3ccc(Cl)cc3)C23COC3)c1` (centres unmarked) [Compound 271, 5,7-bis(4-chlorophenyl)-8-(3-(1,1-difluoroethyl)phenyl)-8-hydroxy-2-oxa-5,7-diazaspiro[3.4]octan-6-one] the value was less than 1 µM; for `N#Cc1ccc(N2C(=O)N(c3ccc(Br)cc3)C(O)(c3cccc(OC(F)(F)F)c3)C23CCC3)cc1` (centres unmarked) [Compound 292, 4-(7-(4-bromophenyl)-8-hydroxy-6-oxo-8-(3-(trifluoromethoxy)phenyl)-5,7-diazaspiro[3.4]octan-5-yl)benzonitrile], less than 1 µM.

The assay is the same for the next values; noted with them: Table 1, Compounds of Formula (I) and Formula (II); CGT enzymatic assay; read-out: IC50.
`N#Cc1cccc(C2(O)[C@@H](C3CC3)N(c3ccc(Cl)cc3)C(=O)N2c2ccc(Cl)cc2)c1` (stereo partly drawn) [Example 187-2, 3-((5R)-1,3-bis(4-chlorophenyl)-5-cyclopropyl-4-hydroxy-2-oxoimidazolidin-4-yl)benzonitrile]: the IC50 is less than 1 µM.

Regarding `O=C1N(c2ccc(Br)cc2)C(O)[C@](c2ccccc2)(C2CC2)N1c1ccc(Br)cc1` (stereo partly drawn) [Example 209-2, (4R)-1,3-bis(4-bromophenyl)-4-cyclopropyl-5-hydroxy-4-phenylimidazolidin-2-one], the IC50 was less than 1 µM. Same read-out and setting: with `CCCC1N(c2ccc(Cl)cc2)C(=O)N(c2ccc(Cl)cc2)C1(O)c1cccc(Cl)c1` (centres unmarked) [Compound 114, 4-(3-chlorophenyl)-1,3-bis(4-chlorophenyl)-4-hydroxy-5-propylimidazolidin-2-one] the figure was less than 1 µM; with `Cc1ccc(N2C(=O)N(c3ccc(C)cc3)C(O)(c3cccc(C#N)c3)[C@@H]2C)cc1` (single isomer, unassigned) [Compound 105-1], 1 to 10 µM. Regarding `C[C@@H]1N(c2ccc(Cl)cc2)C(=O)N(c2ccc(Cl)cc2)C1(O)c1cccc(C(F)(F)F)c1` (single isomer, unassigned) [Compound 77-1], the IC50 is less than 1 µM. Turning to `O=C1N(c2ccc(Br)cc2)CC(O)(c2cc3ccccc3s2)N1c1ccc(Br)cc1` (centres unmarked) [Example 8, 4-(benzo[b]thiophen-2-yl)-1,3-bis(4-bromophenyl)-4-hydroxyimidazolidin-2-one], the IC50 was in the range of 50 to 100 µM. As to `Cc1ccc(N2C(=O)N(c3ccc(C)cc3)C(O)(c3cccc(C#N)c3)C2C)cc1` (centres unmarked) [Compound 105, 3-(4-hydroxy-5-methyl-2-oxo-1,3-di-p-tolylimidazolidin-4-yl)benzonitrile], the IC50 was less than 1 µM. For `COc1ccc(C2(O)C(=O)N(c3ccc(Br)cc3)C(=O)N2c2ccc(Br)cc2)cn1` (centres unmarked) [Example 202, 1,3-bis(4-bromophenyl)-5-hydroxy-5-(6-methoxypyridin-3-yl)imidazolidine-2,4-dione], the IC50 fell in the range of 10 to 50 µM. For `Cc1cccc(-c2c(C)n(-c3ccc(Br)cc3)c(=O)n2-c2ccc(Br)cc2)c1` [Compound 263, 1,3-bis(4-bromophenyl)-4-methyl-5-(m-tolyl)-1,3-dihydro-2H-imidazol-2-one], the IC50 is 1 to 10 µM.

Turning to `CCC[C@@H]1N(c2ccc(Cl)cc2)C(=O)N(c2ccc(Cl)cc2)C1(O)c1cccc(C(F)(F)F)c1` (single isomer, unassigned) [Compound 87-1], the IC50 was less than 1 µM. With `COC(=O)C1(O)[C@@H](C)N(c2ccc(Br)cc2)C(=O)N1c1ccc(Br)cc1` (single isomer, unassigned) [Compound 84-2], the IC50 was greater than 50 µM. The same measure, in the same setting: with `COC(=O)C1(O)[C@H](C)N(c2ccc(Br)cc2)C(=O)N1c1ccc(Br)cc1` (single isomer, unassigned) [Compound 84-1] the figure was greater than 50 µM.

For `O=C1N(c2ccc(Br)cc2)C(=O)C(O)(C2CCOCC2)N1c1ccc(Br)cc1` (centres unmarked) [Example 207, 1,3-bis(4-bromophenyl)-5-hydroxy-5-(tetrahydro-2H-pyran-4-yl)imidazolidine-2,4-dione], the half-inhibitory concentration (IC50) was 10 to 50 µM.

`CCc1cccc(C2(O)[C@@H](C)N(c3ccc(Cl)cc3)C(=O)N2c2ccc(Cl)cc2)c1` (stereo partly drawn) [Compound 69-2, (5R)-1,3-bis(4-chlorophenyl)-4-(3-ethylphenyl)-4-hydroxy-5-methylimidazolidin-2-one]: the IC50 is less than 1 µM. Still for that read-out and setting: with `N#Cc1cccc(C2(O)N(c3ccc(Cl)cc3)C(=O)N(c3ccc(Cl)cc3)C23CCCC3)c1` (centres unmarked) [Compound 135, 3-(1,3-bis(4-chlorophenyl)-4-hydroxy-2-oxo-1,3-diazaspiro[4.4]nonan-4-yl)benzonitrile] the figure was less than 1 µM; with `COc1ccc(C2(O)CN(c3ccc(Br)cc3)C(=O)N2c2ccc(Br)cc2)cn1` (centres unmarked) [Example 54, 1,3-bis(4-bromophenyl)-4-hydroxy-4-(6-methoxypyridin-3-yl)imidazolidin-2-one], greater than 50 µM; with `N#Cc1cccc(C2(O)[C@H](C3CC3)N(c3ccc(Cl)cc3)C(=O)N2c2ccc(Cl)cc2)c1` (stereo partly drawn) [Example 187-1, 3-((5S)-1,3-bis(4-chlorophenyl)-5-cyclopropyl-4-hydroxy-2-oxoimidazolidin-4-yl)benzonitrile], less than 1 µM.

`CCC[C@H]1N(c2ccc(Cl)cc2)C(=O)N(c2ccc(Cl)cc2)C1(O)c1cccc(C)c1` (stereo partly drawn) [Compound 90-2, (5R)-1,3-bis(4-chlorophenyl)-4-hydroxy-5-propyl-4-(m-tolyl)imidazolidin-2-one]: the IC50 was less than 1 µM. Turning to `CCC[C@H]1N(c2ccc(Cl)cc2)C(=O)N(c2ccc(Cl)cc2)C1(O)c1cccc(CC)c1` (stereo partly drawn) [Compound 89-2, (5R)-1,3-bis(4-chlorophenyl)-4-(3-ethylphenyl)-4-hydroxy-5-propylimidazolidin-2-one], the IC50 was less than 1 µM. As to `CC[C@H]1N(c2ccc(Br)cc2)C(=O)N(c2ccc(Br)cc2)C1(O)c1ccccc1` (some centres unmarked) [Example 25-2], the IC50 was less than 1 µM. Same read-out and setting: for `O=c1n(-c2ccc(Cl)cc2)c(-c2cccc(Cl)c2)c(C2CCCO2)n1-c1ccc(Cl)cc1` (centres unmarked) [Compound 254, 4-(3-chlorophenyl)-1,3-bis(4-chlorophenyl)-5-(tetrahydrofuran-2-yl)-1,3-dihydro-2H-imidazol-2-one] the value was 1 to 10 µM. Turning to `Cc1cc(C)cc(C2(O)CN(c3ccc(Br)cc3)C(=O)N2c2ccc(Br)cc2)c1` (centres unmarked) [Example 33, 1,3-bis(4-bromophenyl)-4-(3,5-dimethylphenyl)-4-hydroxyimidazolidin-2-one], the IC50 was 10 to 50 µM. The same measure, in the same setting: for `CC1N(c2ccc(F)cc2)C(=O)N(c2ccc(F)cc2)C1(O)c1cccc(OC(F)(F)F)c1` (centres unmarked) [Compound 130, 1,3-bis(4-fluorophenyl)-4-hydroxy-5-methyl-4-(3-(trifluoromethoxy)phenyl)imidazolidin-2-one] the value was less than 1 µM. Still for that read-out and setting: for `O=C1N(c2ccc(Br)cc2)C(=O)C(O)(C2Cc3ccccc3C2)N1c1ccc(Br)cc1` (centres unmarked) [Example 215, 1,3-bis(4-bromophenyl)-5-(2,3-dihydro-1H-inden-2-yl)-5-hydroxyimidazolidine-2,4-dione] the value was 50 to 100 µM; for `CCOc1cccc(C2(O)CN(c3ccc(Br)cc3)C(=O)N2c2ccc(Br)cc2)c1` (centres unmarked) [Compound 79, 1,3-bis(4-bromophenyl)-4-(3-ethoxyphenyl)-4-hydroxyimidazolidin-2-one], 1 to 10 µM. As for `CCc1c(-c2cccc(OC(F)(F)F)c2)n(-c2ccc(Cl)cc2)c(=O)n1-c1ccc(Cl)cc1` [Compound 247, 1,3-bis(4-chlorophenyl)-4-ethyl-5-(3-(trifluoromethoxy)phenyl)-1,3-dihydro-2H-imidazol-2-one], the IC50 was less than 1 µM.
